Our source for the TGI and GI50 values is PubChem BioAssay (NCI).

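Growth conditions: 96-well plates. Treatment: test compound, 48 hours, 5 concentrations. Analysis: linear interpolation between bracketing concentrations; unreached endpoints set to highest concentration. GI50: concentration for 50% inhibition of growth. Definition used: TGI = concentration required for complete inhibition of growth.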

Holding throughout (test): NCI anticancer screen, dose series, 48 h
Experiment [1] concerns IGROV1 ovarian.
Experiment [2] deals with A549 NSCLC.
For experiment [3], the system named is SN12C renal.
Experiment [4] has as its system MDA-N.
The subject of experiment [5] is NCI-H522 lung.
The test system of experiment [6] is ACHN renal.
Experiment [7] concerns SK-MEL-28 melanoma.
Experiment [8] relates to MDA-MB-435.
Experiment [9] concerns OVCAR-4 ovarian.
Experiment [10] relates to HOP-18 NSCLC.
Experiment [11] deals with DLD-1 colon.

As for `CCC(C)NC1=NCC(C)S1` (stereo unspecified), the TGI in experiment [1], in experiment [2], in experiment [3], in [4], in experiment [5] and in experiment [6] was greater than 100 µM in each case. Moreover, the TGI in experiment [7] and in experiment [8] was greater than 100 µM in each case.
Turning to `CCOP(=O)(OCC)C(c1ccc(F)cc1)N(C(=O)NC(F)(F)F)c1cccc(C(F)(F)F)c1` (stereo unspecified), the TGI in experiment [1], in experiment [2], in experiment [9], in experiment [3], in [4] and in experiment [5] was greater than 100 µM in each case. Also, the TGI in experiment [6], in [7] and in experiment [8] was greater than 100 µM in each case.
For `C=C(C)[C@H]1Cc2c(ccc3c2O[C@@H]2COc4cc(OC)c(OC)cc4[C@@H]2C3=O)O1`, the TGI in experiment [1] is greater than 100 µM; in [10], greater than 89.7 µM; in experiment [2], greater than 100 µM; in [9], 68.5 µM; in experiment [11], greater than 100 µM; in experiment [3] it was 67.5 µM. In addition, the TGI in [5] was 0.404 µM; in experiment [6], 87 µM; in experiment [7] it was 81.4 µM; in experiment [8], 0.0642 µM.
For the molecule `COc1ccccc1CNCCCN1C(=O)c2ccc3c4c(ccc(c24)C1=O)C(=O)N(CCCNCCNCCCN)C3=O`, the GI50 in [1] is 3.69 µM; in experiment [2], 3.01 µM; in [9], 0.466 µM; in experiment [3] it was 2.09 µM; in experiment [5], 1.22 µM; in [6], 4.45 µM. Further, the GI50 was 3.03 µM in experiment [7] and 2.07 µM in [8]. Further, the TGI in experiment [1] came to 15.9 µM; in [2], 13.1 µM; in experiment [9], 1.68 µM; in experiment [3], 8.07 µM; in experiment [5] it was 3.71 µM; in experiment [6], 79.8 µM. Moreover, the TGI in experiment [7] turned out to be 9.66 µM; in [8], 4.94 µM.
Turning to `CCOC(=O)CNC(=O)N(CC)C12CC3CC(CC(C3)C1)C2`, the TGI amounted to 524 µM in experiment [1]; 536 µM in experiment [10]; 602 µM in experiment [2]; 536 µM in [9]; 44.9 µM in experiment [11]; 414 µM in experiment [3]. Moreover, the TGI in experiment [5] turned out to be 323 µM; in [7], 560 µM.
Take `CC1CC2=C(S(=O)(=O)c3ccccc3)CC(S(=O)(=O)c3ccccc3)(S(=O)(=O)c3ccccc3)CC21` (stereo unspecified): the TGI in [1], in experiment [10], in experiment [2], in experiment [9], in [11] and in [3] was greater than 100 µM each time. Besides, the TGI in [6] and in experiment [7] was greater than 100 µM each time.
For `CCOC(=O)Cn1c(=O)ccn(COCCO)c1=O`, the TGI in experiment [1], in [2], in experiment [9], in [3], in experiment [4] and in experiment [5] was greater than 100 µM each time. Moreover, the TGI in experiment [6], in experiment [7] and in experiment [8] was greater than 100 µM each time.
On to `COCc1nc2c(OC)c(-c3nc4nc(N5CCN(C)CC5)ccc4[nH]3)cc(OC)c2n1C`, for which the TGI in [1] is greater than 100 µM; in experiment [2], greater than 100 µM; in [9] it was greater than 100 µM; in experiment [3] it was greater than 100 µM; in [4], greater than 100 µM; in [5] it was 86.4 µM. The TGI in experiment [6] was determined as 57.4 µM; in experiment [7], 56 µM; in [8], 48.4 µM.
For `NNC(=O)c1c(SCc2ccccc2)nc2c3ccccc3ccn12`, the TGI in experiment [1] was 51.2 µM; in experiment [2], 70.3 µM; in experiment [9], 68.6 µM; in [3], greater than 100 µM; in experiment [5], 37.3 µM; in experiment [6], greater than 100 µM. The TGI in [7] and in [8] was greater than 100 µM throughout.
Regarding `C/C(=N/NC(N)=S)c1ccc[nH]1`, the TGI in experiment [1], in experiment [2], in experiment [9], in [3], in [4] and in experiment [5] was greater than 100 µM in each case. For the same molecule, the TGI in experiment [6], in experiment [7] and in experiment [8] was greater than 100 µM in each case.
For `COc1ccc(S(=O)(=O)c2ccccc2[N+](=O)[O-])cc1`, the TGI in [1], in experiment [10], in experiment [2], in [9], in experiment [11] and in [3] was greater than 100 µM each time. For the same molecule, the TGI in experiment [7] is greater than 100 µM.
As to `COc1cc2oc(-c3ccc(O)cc3)c(OC)c(=O)c2c(O)c1OC`, the GI50 in experiment [1] is 76.6 µM; in experiment [2] it was 58.6 µM; in [9] it was 99.2 µM; in [3], 33.7 µM; in [4] it was 25.5 µM; in experiment [5], 45.2 µM. Moreover, the GI50 in experiment [6] is 35.8 µM; in experiment [7], greater than 100 µM. In addition, the TGI in [1], in [2], in experiment [9], in [3], in experiment [4] and in experiment [5] was greater than 100 µM in each case. For the same molecule, the TGI in experiment [6] and in experiment [7] was greater than 100 µM throughout.
Consider `CC(=O)Nc1ccc(/C=C/c2ccc(NC(=O)Nc3ccc(/C=C/c4ccc(NC(C)=O)cc4S(=O)(=O)O)c(S(=O)(=O)O)c3)cc2S(=O)(=O)O)c(S(=O)(=O)O)c1`, for which the TGI in [1], in [10], in experiment [2], in experiment [9], in experiment [11] and in experiment [3] was greater than 100 µM in each case. The TGI in experiment [5] and in experiment [7] was greater than 100 µM throughout.
Consider `COCCCNc1nc(N)c(C#N)c(C#N)c1C#N`, for which the TGI in experiment [1], in [2], in [9], in experiment [3], in experiment [4] and in [5] was greater than 10 µM throughout. The TGI in experiment [6], in [7] and in experiment [8] was greater than 10 µM throughout.
Regarding `CCOC(=O)c1ccc(N[C@@H]2c3cc4c(cc3C(c3cc(OC)c(O)c(OC)c3)[C@H]3C(=O)OCC32)OCO4)cc1O` (stereo partly specified), the TGI is greater than 43.5 µM in experiment [1]; greater than 54.4 µM in experiment [10]; 2.51 µM in [2]; greater than 100 µM in [9]; 4.58 µM in experiment [11]; 2.07 µM in [5]. In addition, in experiment [7], the TGI turned out to be 42 µM.
